This is an account of results in ChEMBL document CHEMBL4483862, “Open-source discovery of chemical leads for next-generation chemoprotective antimalarials” (2018).

A word on the IC50: it is the concentration needed to halve the response being measured. For orientation: IC90 means the concentration at which the effect reaches the 90% level.

For the experiment, the system named is Plasmodium berghei. As to the kind of experiment: Luciferase/luciferin-expressing antifolate-resistant parasites were used to infect a culture of HepG2 cells that were pre-incubated with compounds. Infected hepatocytes emit light due to the luciferase reaction. Assay results are presented as the percent inhibition of light emission compared to control. […]. The class given is functional. The settings on record: sporozoite; for IC90: read-out: LUCIFERASE INFECTION ASSAY - IC90.

The mark [1] stands for this setting: read-out: LUCIFERASE INFECTION ASSAY - IC50.

Some results are limits rather than exact numbers.

With `CCOC(=O)c1c(S(=O)(=O)Nc2ccc(C(C)(C)C)cc2)c(-c2ccccc2)n(-c2ccccc2)c1C`, the IC90 is 5.19 µM. In addition, the IC50 (FFLUC_HILL_SLOPE 2.33, FFLUC_R_SQUARED 0.844, HEPG2TOX_HILL_SLOPE 0.337, HEPG2TOX_R_SQUARED 0.667, PBLUC_HILL_SLOPE 4.65, PBLUC_R_SQUARED 0.51, read-out: LUCIFERASE INFECTION ASSAY - IC50) is 3.23 µM.

For the molecule `COc1ccc(-c2ccc3c(c2)COC2(CCN(C(=O)c4ccc(F)cc4F)CC2)O3)cc1OC`, the 90% effect concentration (IC90) was greater than 6.85 µM. The IC50 under setting [1] is greater than 6.85 µM.

As for `COCCn1cnc2c1c(=O)n(CC(=O)NC1(C#N)CCCCCC1)c(=O)n2CC(C)C`, the IC90 was greater than 10 µM. Besides, under setting [1], the IC50 is greater than 10 µM.

Regarding `Cc1cc(-n2c(C)cc(C(=O)Cn3ncc(Cl)c(Cl)c3=O)c2C)ccc1Br`, the IC90 came to 5.84 µM. Moreover, the IC50 (FFLUC_HILL_SLOPE 3.61, FFLUC_R_SQUARED 0.511, HEPG2TOX_HILL_SLOPE 4.93, HEPG2TOX_R_SQUARED 0.864, PBLUC_HILL_SLOPE 65.8, PBLUC_R_SQUARED 0.0361, read-out: LUCIFERASE INFECTION ASSAY - IC50) was 5.65 µM.

For `O=C(NNc1cc(C(F)(F)F)nc2ccccc12)Nc1ccc(Cl)cc1`, the IC90 was greater than 8.67 µM. Moreover, the IC50 under setting [1] is greater than 8.67 µM.

For `O=C(CN1CCN(Cc2cc(=O)oc3cc4c(cc23)CCC4)CC1)Nc1ccc(Cl)c(C(F)(F)F)c1`, the IC90 was greater than 10 µM. Besides, the IC50 (PBLUC_HILL_SLOPE 2.35, PBLUC_R_SQUARED 0.537, read-out: LUCIFERASE INFECTION ASSAY - IC50) was found to be 5.82 µM.

Take `O=C(Nc1nnc(C(F)(F)F)s1)c1ccc(F)c(Cl)c1`: the IC90 turned out to be 4.03 µM. In addition, the IC50 (HEPG2TOX_HILL_SLOPE 1.54, HEPG2TOX_R_SQUARED 0.943, PBLUC_HILL_SLOPE 14.8, PBLUC_R_SQUARED 0.531, read-out: LUCIFERASE INFECTION ASSAY - IC50) amounted to 3.48 µM.

Take `CCOc1ccc(CN2CCN(C(=O)Cc3c(C)nn(C)c3C)CC2)cc1`: the IC90 is greater than 10 µM. Further, the IC50 (PBLUC_HILL_SLOPE 2.6, PBLUC_R_SQUARED 0.21, read-out: LUCIFERASE INFECTION ASSAY - IC50) is greater than 10 µM.

In the case of `O=C(OCc1csc(-c2ccccc2)n1)c1ccccc1Sc1ccc(C(F)(F)F)cc1[N+](=O)[O-]`, the IC90 is greater than 10 µM. Further, the IC50 under setting [1] was greater than 10 µM.

For the molecule `COc1ccc(S(=O)(=O)Nc2ccccc2Sc2ncnc3scc(C)c23)cc1`, the IC90 was greater than 7.44 µM. In addition, under setting [1], the IC50 was greater than 7.44 µM.

On to `O=C(NC1CC1)c1ccc(-c2cnc3c(NCc4cccs4)nccn23)cc1`, for which the IC90 was found to be 3.14 µM.

Turning to `Cn1cnnc1Sc1ccc(/C=C/c2nc3ccccc3[nH]2)cc1[N+](=O)[O-]`, the IC90 amounted to 3.92 µM. For the same molecule, for the setting “PBLUC_HILL_SLOPE 13.5, PBLUC_R_SQUARED 0.706, read-out: LUCIFERASE INFECTION ASSAY - IC50”, the IC50 was determined as 3.33 µM.

With `O=C(COc1ccccc1-c1ccccc1)Nc1nc(-c2ccccn2)cs1`, the IC90 is 9.35 µM. For the same molecule, the IC50 (HEPG2TOX_HILL_SLOPE 2.53, HEPG2TOX_R_SQUARED 0.481, PBLUC_HILL_SLOPE 10.3, PBLUC_R_SQUARED 0.199, read-out: LUCIFERASE INFECTION ASSAY - IC50) came to 7.56 µM.

`c1csc(-c2cnc3sc(NCCc4ccncc4)nn23)c1`: the IC90 is greater than 10.1 µM. The 50% inhibitory concentration (IC50) (FFLUC_HILL_SLOPE 0.665, FFLUC_R_SQUARED 0.0104, HEPG2TOX_HILL_SLOPE 4.1, HEPG2TOX_R_SQUARED 0.712, read-out: LUCIFERASE INFECTION ASSAY - IC50) was greater than 10.1 µM.

On to `CCCCN(C)CC(O)Cn1c2ccc(Cl)cc2c2cc(Cl)ccc21` (stereo not given), for which the IC90 was determined as 6.48 µM. Moreover, the IC50 (HEPG2TOX_HILL_SLOPE 6.86, HEPG2TOX_R_SQUARED 0.608, PBLUC_HILL_SLOPE 4.67, PBLUC_R_SQUARED 0.619, read-out: LUCIFERASE INFECTION ASSAY - IC50) is 4.05 µM.

`O=C(CN1CCN(Cc2csc(Nc3cccc(C(F)(F)F)c3)n2)CC1)N1CCCC1`: the IC90 was greater than 10 µM. Further, under setting [1], the 50% inhibitory concentration (IC50) is greater than 10 µM.

As to `Cn1c(=O)n(C2CCCCC2)c(=O)c2ccccc21`, the IC90 was greater than 12.8 µM. In addition, under setting [1], the IC50 was greater than 12.8 µM.

Consider `COc1ccc2c(c1)CCCC21NC(=O)N(Cc2nc3ccccc3s2)C1=O` (stereo not given), for which the IC90 worked out at 8.43 µM. In addition, the IC50 (PBLUC_HILL_SLOPE 1.51, PBLUC_R_SQUARED 0.684, read-out: LUCIFERASE INFECTION ASSAY - IC50) was determined as 1.97 µM.

`COC(=O)c1c(NC(=O)c2ccco2)c2cc(NC(C)Cc3ccccc3F)cnc2n1C` (stereo not given): the IC90 is greater than 7.33 µM. Moreover, the IC50 (HEPG2TOX_HILL_SLOPE 10.3, HEPG2TOX_R_SQUARED 0.591, PBLUC_HILL_SLOPE 7.35, PBLUC_R_SQUARED 0.509, read-out: LUCIFERASE INFECTION ASSAY - IC50) came out at 6.19 µM.

Take `CCOc1ccc(C(=O)NCc2ccco2)cc1Cl`: the IC90 was greater than 11.8 µM. For the same molecule, under “PBLUC_HILL_SLOPE 19.7, PBLUC_R_SQUARED 0.665, read-out: LUCIFERASE INFECTION ASSAY - IC50”, the IC50 came to 11.5 µM.

Take `N#Cc1c(SCc2ccc(Cl)cc2)nc2c(c1-c1cccs1)CCCC2`: the IC90 was greater than 8.31 µM. Besides, the IC50 (FFLUC_HILL_SLOPE 2.42, FFLUC_R_SQUARED 0.441, PBLUC_HILL_SLOPE 1.78, PBLUC_R_SQUARED 0.144, read-out: LUCIFERASE INFECTION ASSAY - IC50) is 7.61 µM.

`C#CCOc1ccccc1/C=C(\C#N)c1nc(N)nc(Nc2ccccc2)n1`: the IC90 is greater than 10 µM. The IC50 (FFLUC_HILL_SLOPE 15.9, FFLUC_R_SQUARED 0.0727, HEPG2TOX_HILL_SLOPE 1.54, HEPG2TOX_R_SQUARED 0.555, PBLUC_HILL_SLOPE 1.18, PBLUC_R_SQUARED 0.297, read-out: LUCIFERASE INFECTION ASSAY - IC50) was greater than 10 µM.

For the molecule `Cc1ccsc1C(O)c1nnc(N2CCCCC2)s1` (stereo not given), the IC90 is 6.49 µM. Further, the IC50 (PBLUC_HILL_SLOPE 1.05, PBLUC_R_SQUARED 0.691, read-out: LUCIFERASE INFECTION ASSAY - IC50) was 0.794 µM.

`CC(C)(C)c1ccc(-c2nnc(SCc3ccccc3)n2-c2cccc(C(F)(F)F)c2)cc1`: the IC90 is greater than 7.06 µM. The IC50 (PBLUC_HILL_SLOPE 9.35, PBLUC_R_SQUARED 0.201, read-out: LUCIFERASE INFECTION ASSAY - IC50) stood at 6.61 µM.

Regarding `c1ccc(-c2ccc(C3=Nc4ccccc4SC(c4ccco4)C3)cc2)cc1` (stereo not given), the IC90 worked out at 4.75 µM. For the same molecule, the IC50 (FFLUC_HILL_SLOPE 14.5, FFLUC_R_SQUARED 0.557, PBLUC_HILL_SLOPE 1.32, PBLUC_R_SQUARED 0.568, read-out: LUCIFERASE INFECTION ASSAY - IC50) came out at 0.903 µM.

As to `Cc1ccc(S(=O)(=O)c2c(C)nn(C(C)(C)C)c2OC(=O)c2cccc([N+](=O)[O-])c2)cc1`, the IC90 was greater than 10 µM. Under setting [1], the IC50 is greater than 10 µM.

As for `CN(/N=C/c1cc(Cl)cc(Cl)c1O)c1ccc(C(F)(F)F)cc1[N+](=O)[O-]`, the IC90 was greater than 8.09 µM. Also, the IC50 under setting [1] was greater than 8.09 µM.

For the molecule `CN(CC(=O)Nc1ccccc1N1CCCC1)Cc1ccc2ccccc2c1`, the IC90 was 0.646 µM. In addition, where the note is “HEPG2TOX_HILL_SLOPE 0.547, HEPG2TOX_R_SQUARED 0.872, PBLUC_HILL_SLOPE 2.05, PBLUC_R_SQUARED 0.897, read-out: LUCIFERASE INFECTION ASSAY - IC50”, the IC50 stood at 0.221 µM.

As for `Cc1n[nH]c(C(=O)NCc2ccc(OC(C)C)cc2)c1Br`, the IC90 was greater than 10 µM. For the same molecule, under “PBLUC_HILL_SLOPE 12.5, PBLUC_R_SQUARED 0.288, read-out: LUCIFERASE INFECTION ASSAY - IC50”, the half-inhibitory concentration (IC50) amounted to 8.82 µM.

In the case of `CN(C)c1nc(N)nc(COC(=O)c2cccc(Br)c2)n1`, the IC90 is greater than 10 µM. Besides, the IC50 under setting [1] is greater than 10 µM.

Regarding `COc1ccc(-c2cc(C(=O)N[C@@H](CCSC)c3nc4ccccc4[nH]3)c3ccccc3n2)cc1OC`, the IC90 was 8.04 µM. For the setting “PBLUC_HILL_SLOPE 3.46, PBLUC_R_SQUARED 0.459, read-out: LUCIFERASE INFECTION ASSAY - IC50”, the IC50 came to 4.26 µM.

`O=C(Nc1cc(Cl)cc(Cl)c1)Nc1cc(-c2cccs2)n[nH]1`: the IC90 turned out to be 9.3 µM. For the same molecule, the IC50 (FFLUC_HILL_SLOPE 1.15, FFLUC_R_SQUARED 0.0672, PBLUC_HILL_SLOPE 14.1, PBLUC_R_SQUARED 0.219, read-out: LUCIFERASE INFECTION ASSAY - IC50) came out at 7.95 µM.

In the case of `COc1cccc(-c2cn3c(-c4cccc(O)c4)cnc3cn2)c1F`, the IC90 was 3.69 µM. The IC50 (PBLUC_HILL_SLOPE 18.9, PBLUC_R_SQUARED 0.523, read-out: LUCIFERASE INFECTION ASSAY - IC50) worked out at 3.28 µM.

For `O=C(CC1(C(F)(F)F)OCCO1)Nc1ccc(C(OC(=O)c2ccc(F)cc2)(C(F)(F)F)C(F)(F)F)cc1`, the IC90 is greater than 10 µM. Moreover, under setting [1], the IC50 was greater than 10 µM.

On to `CC(C)c1noc(CN2CCN(c3ncnc4sc(-c5ccccc5)cc34)CC2)n1`, for which the IC90 worked out at 6.72 µM. Moreover, the IC50 (HEPG2TOX_HILL_SLOPE 1.77, HEPG2TOX_R_SQUARED 0.986, PBLUC_HILL_SLOPE 2.11, PBLUC_R_SQUARED 0.835, read-out: LUCIFERASE INFECTION ASSAY - IC50) is 2.37 µM.

For `O=C(/C=C/c1cnn(Cc2ccccc2)c1)N1CCN(Cc2ccc(Cl)cc2)CC1`, the IC90 is 6.97 µM. Also, under “PBLUC_HILL_SLOPE 126, PBLUC_R_SQUARED 0.0794, read-out: LUCIFERASE INFECTION ASSAY - IC50”, the IC50 was 6.85 µM.

Consider `CCCCNC(=O)Nc1ccn(C)n1`, for which the IC90 was greater than 16.8 µM. Further, the IC50 under setting [1] was greater than 16.8 µM.

For the molecule `Cc1ccc(NC(=O)c2cc3c(s2)CCCCCC3)nc1`, the IC90 was found to be 5.93 µM. Moreover, the IC50 (PBLUC_HILL_SLOPE 0.925, PBLUC_R_SQUARED 0.636, read-out: LUCIFERASE INFECTION ASSAY - IC50) turned out to be 0.551 µM.
